The target in one experiment is p70S6K (Homo sapiens, UniProt P23443). Nature of the experiment: Luciferase-coupled chemiluminescence kinase assay (ATP consumption). Format: biochemical. The gist of the method:
(§1)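 Enzyme at 2.5-5 nM was preincubated 30 min at room temperature with compound in Tris pH 7.5, MgCl2, TX-100, DTT, then reacted with ATP for 3 h at ambient temperature. Remaining ATP was quantified by luciferase-luciferin chemiluminescence, with consumption kept at 25-60%; […].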

For a further experiment, the target named is AktK (Homo sapiens, UniProt P31749). Described as above. The format is biochemical. Particulars: read-out: AKT-1 IC50. The essentials:
as §1

Read-outs that look alike come from different tables or passages of the source. Bounds are passed on as bounds.

Sequence of p70S6K (P23443 whole entry): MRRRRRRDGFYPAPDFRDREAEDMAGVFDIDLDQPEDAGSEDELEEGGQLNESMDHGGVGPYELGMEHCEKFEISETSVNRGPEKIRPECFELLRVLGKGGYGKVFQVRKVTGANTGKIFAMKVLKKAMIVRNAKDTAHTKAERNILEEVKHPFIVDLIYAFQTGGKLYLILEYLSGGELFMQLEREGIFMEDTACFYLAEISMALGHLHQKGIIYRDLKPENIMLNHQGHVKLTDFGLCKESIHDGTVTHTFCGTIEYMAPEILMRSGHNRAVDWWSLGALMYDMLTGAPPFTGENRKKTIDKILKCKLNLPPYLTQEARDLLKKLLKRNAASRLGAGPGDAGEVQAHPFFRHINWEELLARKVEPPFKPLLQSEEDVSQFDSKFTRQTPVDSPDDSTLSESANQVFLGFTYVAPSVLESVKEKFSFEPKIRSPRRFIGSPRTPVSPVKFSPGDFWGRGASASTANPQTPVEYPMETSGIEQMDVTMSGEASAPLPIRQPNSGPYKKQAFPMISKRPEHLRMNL
Sequence of AktK (P31749 whole entry): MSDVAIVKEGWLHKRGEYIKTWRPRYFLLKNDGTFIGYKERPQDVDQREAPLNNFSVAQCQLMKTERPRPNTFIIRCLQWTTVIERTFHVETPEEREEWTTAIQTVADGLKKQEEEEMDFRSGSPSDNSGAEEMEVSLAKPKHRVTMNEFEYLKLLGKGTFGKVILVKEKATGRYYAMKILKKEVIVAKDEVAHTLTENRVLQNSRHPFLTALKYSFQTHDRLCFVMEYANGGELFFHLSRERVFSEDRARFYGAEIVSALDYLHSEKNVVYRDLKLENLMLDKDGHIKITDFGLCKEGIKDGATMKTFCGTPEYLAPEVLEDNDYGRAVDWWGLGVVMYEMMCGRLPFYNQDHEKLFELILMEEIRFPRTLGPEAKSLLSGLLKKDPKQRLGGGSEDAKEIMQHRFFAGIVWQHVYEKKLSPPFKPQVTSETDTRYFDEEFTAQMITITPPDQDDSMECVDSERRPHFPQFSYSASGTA

On to `COC(CCC(F)(F)F)(OC)c1cc(NCCN2CCCC2)c(C)c(N2CCN(c3ncnc4[nH]nc(Br)c34)CC2)c1` [Entry 292, 3-[4-(3-bromo-1H-pyrazolo[3,4-d]pyrimidin-4-yl)piperazin-1-yl]-2-methyl-N-(2-pyrrolidin-1-ylethyl)-5-[4,4,4-trifluoro-1,1-bis(methyloxy)butyl]aniline], for which the IC50 against p70S6K and at AktK was under 0.1 µM throughout.

Take `CCc1n[nH]c2ncnc(N3CCN(c4ccccc4)CC3)c12` [Entry 98, 3-ethyl-4-(4-phenylpiperazin-1-yl)-1H-pyrazolo[3,4-d]pyrimidine]: the IC50 was 0.1 to 1 µM against p70S6K (Table 1, class symbols per key) and at least 10 µM on AktK (Table 1, class symbols per key).

For the molecule `Cc1n[nH]c2ncnc(N3CCN(c4cccc(Cl)c4)CC3)c12` [Entry 318, 4-[4-(3-chlorophenyl)piperazin-1-yl]-3-methyl-1H-pyrazolo[3,4-d]pyrimidine], the results for the IC50 against p70S6K and at AktK were under 0.1 µM and at least 10 µM, respectively.

Take `Cc1c(NCCN2CCCC2)cc(C(=O)Nc2ccccc2Cl)cc1N1CCN(c2ncnc3[nH]nc(Br)c23)CC1` [Entry 204, 3-[4-(3-bromo-1H-pyrazolo[3,4-d]pyrimidin-4-yl)piperazin-1-yl]-N-(2-chlorophenyl)-4-methyl-5-[(2-pyrrolidin-1-ylethyl)amino]benzamide]: the IC50 at p70S6K (Table 1, class symbols per key) was under 0.1 µM; on AktK (Table 1, class symbols per key), under 0.1 µM.

As to `Cc1c(NCCN2CCCC2)cc(C(=O)NOCC2CC2)cc1N1CCN(c2ncnc3[nH]nc(Br)c23)CC1` [Entry 258, 3-[4-(3-bromo-1H-pyrazolo[3,4-d]pyrimidin-4-yl)piperazin-1-yl]-N-[(cyclopropylmethyl)oxy]-4-methyl-5-[(2-pyrrolidin-1-ylethyl)amino]benzamide], the 50% inhibitory concentration (IC50) on p70S6K (Table 1, class symbols per key) is under 0.1 µM; at AktK (Table 1, class symbols per key), 0.1 to 1 µM.

`CCCOc1cc(NCCN2CCCC2)c(C)c(N2CCN(c3ncnc4[nH]nc(Br)c34)CC2)c1` [Entry 224, 3-[4-(3-bromo-1H-pyrazolo[3,4-d]pyrimidin-4-yl)piperazin-1-yl]-2-methyl-5-(propyloxy)-N-(2-pyrrolidin-1-ylethyl)aniline]: the 50% inhibitory concentration (IC50) on p70S6K (Table 1, class symbols per key) is under 0.1 µM; on AktK (Table 1, class symbols per key) it was under 0.1 µM.

With `CCc1n[nH]c2ncnc(N3CCN(c4cc(Cl)c(O)cc4C)CC3)c12` [Entry 381, 2-chloro-4-[4-(3-ethyl-1H-pyrazolo[3,4-d]pyrimidin-4-yl)piperazin-1-yl]-5-methylphenol], the figures for the IC50 against p70S6K and at AktK were under 0.1 µM and 1 to 10 µM, respectively.

As to `Cc1ccc(Cl)cc1N1CCN(c2ncnc3[nH]nc(-c4ccc(Oc5ccccc5)cc4)c23)CC1` [Entry 358, 4-[4-(5-chloro-2-methylphenyl)piperazin-1-yl]-3-[4-(phenyloxy)phenyl]-1H-pyrazolo[3,4-d]pyrimidine], the results for the IC50 against p70S6K and on AktK were 0.1 to 1 µM and 1 to 10 µM, respectively.

As for `CCc1n[nH]c2ncnc(N3CCN(c4cc(Cl)cc(CO)c4OC)CC3)c12` [Entry 367, [5-chloro-3-[4-(3-ethyl-1H-pyrazolo[3,4-d]pyrimidin-4-yl)piperazin-1-yl]-2-(methyloxy)phenyl]methanol], the figures for the IC50 at p70S6K and at AktK were under 0.1 µM and 1 to 10 µM, respectively.

In the case of `CCc1n[nH]c2ncnc(N3CCN(c4cc(Cl)cc(CCCN(CC)CC)c4C)CC3)c12` [Entry 402, 3-{5-chloro-3-[4-(3-ethyl-1H-pyrazolo[3,4-d]pyrimidin-4-yl)piperazin-1-yl]-2-methylphenyl}-N,N-diethylpropan-1-amine], the IC50 against p70S6K was under 0.1 µM; at AktK, 0.1 to 1 µM.

On to `Fc1ccc(N2CCN(c3ncnc4[nH]nc(Br)c34)CC2)cc1` [Entry 153, 3-bromo-4-[4-(4-fluorophenyl)piperazin-1-yl]-1H-pyrazolo[3,4-d]pyrimidine], for which the IC50 against p70S6K (Table 1, class symbols per key) was 0.1 to 1 µM; on AktK (Table 1, class symbols per key), at least 10 µM.

As for `CCc1n[nH]c2ncnc(N3CCN(c4cc(Cl)cc(N(C)CCN(C)C)c4C)CC3)c12` [Entry 82, N-{5-chloro-3-[4-(3-ethyl-1H-pyrazolo[3,4-d]pyrimidin-4-yl)piperazin-1-yl]-2-methylphenyl}-N,N′,N′-trimethylethane-1,2-diamine], the IC50 was under 0.1 µM against p70S6K (Table 1, class symbols per key) and 1 to 10 µM at AktK (Table 1, class symbols per key).

In the case of `Cc1c(NCCN2CCCC2)cc(OCC2CCCCC2)cc1N1CCN(c2ncnc3[nH]nc(Br)c23)CC1` [Entry 217, 3-[4-(3-bromo-1H-pyrazolo[3,4-d]pyrimidin-4-yl)piperazin-1-yl]-5-[(cyclohexylmethyl)oxy]-2-methyl-N-(2-pyrrolidin-1-ylethyl)aniline], the half-maximal inhibitory concentration (IC50) was under 0.1 µM on p70S6K (Table 1, class symbols per key) and 0.1 to 1 µM at AktK (Table 1, class symbols per key).

As for `CCOc1ccc(N2CCN(c3ncnc4[nH]nc(Br)c34)CC2)cc1` [Entry 104, 3-bromo-4-{4-[4-(ethyloxy)phenyl]piperazin-1-yl}-1H-pyrazolo[3,4-d]pyrimidine], the IC50 at p70S6K (Table 1, class symbols per key) is 0.1 to 1 µM; at AktK (Table 1, class symbols per key), at least 10 µM.

For `FC(F)(F)c1cccc(N2CCN(c3ncnc4[nH]ccc34)CC2)c1` [Entry 305, 4-{4-[3-(trifluoromethyl)phenyl]piperazin-1-yl}-7H-pyrrolo[2,3-d]pyrimidine], the IC50 was 0.1 to 1 µM on p70S6K and at least 10 µM at AktK.

In the case of `Cc1ccc(Cl)cc1N1CCN(c2ncnc3[nH]nc(C=C4C[C@@H]5CN(C(=O)OCc6ccccc6)C[C@@H]5C4)c23)CC1` [Entry 395, phenylmethyl (3aR,6aS)-5-({4-[4-(5-chloro-2-methylphenyl)piperazin-1-yl]-1H-pyrazolo[3,4-d]pyrimidin-3-yl}methylidene)hexahydrocyclo-penta[c]pyrrole-2(1H)-carboxylate], the IC50 at p70S6K and at AktK was 1 to 10 µM throughout.

Turning to `Cc1ccc(Cl)cc1N1CCN(c2ncnc3[nH]nc(-c4cccc(O)c4)c23)CC1` [Entry 335, 3-{4-[4-(5-chloro-2-methylphenyl)piperazin-1-yl]-1H-pyrazolo[3,4-d]pyrimidin-3-yl}phenol], the figures for the concentration for half-maximal inhibition (IC50) against p70S6K and at AktK were 0.1 to 1 µM and 1 to 10 µM, respectively.

Turning to `Cc1ccc(N2CCN(c3ncnc4[nH]nc(Br)c34)CC2)c(C)c1` [Entry 64, 3-bromo-4-[4-(2,4-dimethylphenyl)piperazin-1-yl]-1H-pyrazolo[3,4-d]pyrimidine], the concentration for half-maximal inhibition (IC50) was in the range of 0.1 to 1 µM on p70S6K (Table 1, class symbols per key) and 1 to 10 µM at AktK (Table 1, class symbols per key).

In the case of `Cc1c(NCCN2CCCC2)cc(CO)cc1N1CCN(c2ncnc3[nH]nc(Br)c23)CC1` [Entry 268, {3-[4-(3-bromo-1H-pyrazolo[3,4-d]pyrimidin-4-yl)piperazin-1-yl]-4-methyl-5-[(2-pyrrolidin-1-ylethyl)amino]phenyl}methanol], the 50% inhibitory concentration (IC50) against p70S6K (Table 1, class symbols per key) was under 0.1 µM; on AktK (Table 1, class symbols per key) it was 0.1 to 1 µM.

Consider `CCc1n[nH]c2ncnc(N3CCN(c4cc(Cl)cc(CCCN5CCN(C)CC5)c4C)CC3)c12` [Entry 62, 4-(4-{5-chloro-2-methyl-3-[3-(4-methylpiperazin-1-yl)propyl]phenyl}piperazin-1-yl)-3-ethyl-1H-pyrazolo[3,4-d]pyrimidine], for which the IC50 against p70S6K (Table 1, class symbols per key) was under 0.1 µM; at AktK (Table 1, class symbols per key), 0.1 to 1 µM.

In the case of `Cc1ccc(Cl)cc1N1CCN(c2ncnc3[nH]nc(/C=C/C(=O)OC(C)(C)C)c23)CC1` [Entry 387, 1,1-dimethylethyl (2E)-3-{4-[4-(5-chloro-2-methylphenyl)piperazin-1-yl]-1H-pyrazolo[3,4-d]pyrimidin-3-yl}prop-2-enoate], the IC50 is 0.1 to 1 µM against p70S6K and 1 to 10 µM on AktK.

As usually defined, the IC50 is the concentration that gives 50% inhibition.

The values above are taken from patent US8076338B2, “Kinase modulators and methods of use” (Exelixis, Inc., priority 2004, dated 2011).
